Test results taken from patent US20260345717A1, “COMPOSITION FOR PREVENTING, AMELIORATING, OR TREATING ALZHEIMER'S DISEASE COMPRISING GRAPEVINE STEM EXTRACT OR COMPOUND ISOLATED THEREFROM AS EFFECTIVE COMPONENT” (KOREA INSTITUTE OF ORIENTAL MEDICINE, priority 2022, published 2026).

Legend:
[1] = tested on: herpes simplex virus (HSV-1) in Vero cells; test: Antiviral effect: HSV-1 (GFP) infection of Vero cells, flow cytometry; format: cell-based; details: for inhibition at 10 µM / inhibition at 5 µM: Human alphaherpesvirus 1, Vero, 18 h, read-out: inhibition rate of virus replication; for antiviral effect compared with other components of the extract: FIG. 2
Experimental: Vero cells were cultured in DMEM medium supplemented with 10% fetal bovine serum (FBS) and 1% penicillin/streptomycin. After culturing, the cells were infected with herpes simplex virus (HSV-1, 0.1 MOI) for 2 hours in DMEM medium supplemented with 1% penicillin/streptomycin. The infection solution was removed, the cells were washed with PBS and then treated with the samples from Preparation example 1 at different concentrations in DMEM supplemented with 10% FBS and 1% penicillin/streptomycin. The cells were subsequently cultured for 18 hours. Afterwards, the cells were recovered, fixed with 4% paraformaldehyde, washed with PBS, and GFP of the virus was quantified using flow cytometry. The cell infection rate was expressed as the infection rate compared to the group (Virus) that had not been treated with any sample.
In addition, the antiviral effect of the components contained in the grapevine stem extract obtained in Preparation example 2, i.e., vitisin A, &-viniferin, caraphenol A, betuin, cis-vitisin A, ampelopsin A, lupeol, vitisin B, malibatol A, viniferether B, lupenone, and resveratrol, was also determined by conducting experiments in the same manner as above.

[2] = tested on: U373-MG cells infected with herpes simplex virus (HSV-1); test: Cell survival of HSV-1 infected U373-MG cells, MTT assay; format: cell-based, human; details: compared to untreated group (control), FIG. 5A; for viability at 10 µM: Homo sapiens, 18 h, read-out: cell survival rate
Experimental: (§1) U373-MG cells, a human-derived glioblastoma, were cultured in RPMI1640 medium supplemented with 10% FBS (Fetal bovine serum) and 1% penicillin/streptomycin. After culturing, the cells were infected with herpes simplex virus (HSV-1, 0.1 MOI) in RPMI1640 medium supplemented with 1% penicillin/streptomycin. After 2 hours, the infection solution was removed. After washing with PBS, the cells were treated for 18 hours with a sample in RPMI1640 supplemented with 10% FBS and 1% penicillin/streptomycin. […] Cell survival rate was expressed as cell survival rate compared to the untreated group (control).

[3] = tested on: gB protein of the herpes simplex virus; test: gB viral protein expression in HSV-1 infected U373-MG cells, Western blot; format: cell-based, herpes simplex virus (HSV-1); details: 10 μM, FIG. 5B, 1080 min
[4] = tested on: herpes simplex virus protein ICP27; test: ICP27 viral protein expression in HSV-1 infected U373-MG cells; format: cell-based, herpes simplex virus (HSV-1); details: concentration not restated
[5] = tested on: herpes simplex virus protein VP16; test: VP16 viral protein expression in HSV-1 infected U373-MG cells; format: cell-based, herpes simplex virus (HSV-1); details: concentration not restated
amyloid beta (Aβ1-42) = test: Amyloid beta (Aβ1-42) expression in HSV-1 infected U373-MG cells, Western blot; format: cell-based, human; details: 10 μM, FIGS. 10A and 10B
Experimental: as §1
(§2) The experiment was conducted in the same manner as the cell experiment in Example 3, but vitisin A, cis-vitisin A, and vitisin B isolated from grapevine stem extract were treated as test samples, and cell proteins were isolated to determine the expression of proteins that are related to dementia.

tau protein (p-tau) = test: Phosphorylation of tau protein (p-tau) in HSV-1 infected U373-MG cells, Western blot; format: cell-based, human; details: 10 μM, FIGS. 10A and 10B
Experimental: as §1, §2

**Q.** Which inhibition at 10 µM [1] does the source give for `Oc1ccc(/C=C/c2cc(O)cc3c2C(c2cc(O)cc(O)c2)C(c2ccc(O)cc2)O3)cc1` (stereo not drawn) [ε-viniferin] here?
**A.** Its inhibition at 10 µM is 42%.

**Q.** With `Oc1ccc([C@H]2c3c(O)cc(O)cc3[C@H]3c4c(cc(O)cc4[C@@H]2O)O[C@@H]3c2ccc(O)cc2)cc1` [amphelopsin A, ampelopsin A] as the molecule, how does the inhibition at 10 µM [1] read?
**A.** The inhibition at 10 µM was 54%.

**Q.** For `C=C(C)[C@@H]1CC[C@]2(C)CC[C@]3(C)[C@H](CC[C@@H]4[C@@]5(C)CC[C@H](O)C(C)(C)[C@@H]5CC[C@]43C)[C@@H]12` (single isomer, unassigned) [lupeol], which inhibition at 10 µM [1] is on record?
**A.** Its inhibition at 10 µM is 59%.

**Q.** How did the “inhibition of viral infection” value ([1]; Vero cells, HSV-1 0.1 MOI, 18 hours, concentration not restated in this sentence) turn out when `Oc1ccc(C=Cc2cc(O)cc(O)c2)cc1` (single isomer, unassigned) [Resveratrol, resveratrol] was run?
**A.** The value was 67%.

**Q.** What does the source list for cis-vitisin A?
**A.** cell survival rate ([2]; 10 μM, 1080 min): 84%; reduction of gB protein compared to the virus-infected group [3]: 27%

**Q.** Which results are given for `Oc1ccc([C@H]2Oc3cc(O)cc(/C=C/c4ccc5c(c4)[C@@H](c4cc(O)cc6c4[C@H](c4cc(O)cc(O)c4)[C@@H](c4ccc(O)cc4)O6)[C@H](c4ccc(O)cc4)O5)c3[C@@H]2c2cc(O)cc(O)c2)cc1` [vitisin B]?
**A.** inhibition at 5 µM [1]: 80%; inhibition at 10 µM [1]: 76%; antiviral effect compared with other components of the extract ([1]; Vero cells): best antiviral effect; viability at 10 µM [2]: 76%; reduction of gB protein compared to the virus-infected group [3]: 66%

**Q.** `Oc1ccc(-c2oc3cc(O)cc4c3c2-c2cc(O)cc3c2[C@H](c2cc(O)cc5c2[C@@H]4[C@H](c2ccc(O)cc2)O5)[C@@H](c2ccc(O)cc2)O3)cc1` [caraphenol A] was tested. Which inhibition at 10 µM [1] did it give?
**A.** Its inhibition at 10 µM is 41%.

**Q.** For `Oc1ccc([C@H]2c3c(O)cc(O)cc3[C@H]3c4c(cc(O)cc4[C@@H]2c2cc(/C=C/c4cc(O)cc5c4[C@H](c4cc(O)cc(O)c4)[C@@H](c4ccc(O)cc4)O5)ccc2O)O[C@@H]3c2ccc(O)cc2)cc1` [vitisin A], which inhibition at 5 µM [1] is on record?
**A.** The inhibition at 5 µM was 80%.

**Q.** And the inhibition at 10 µM [1]?
**A.** Its inhibition at 10 µM is 96%.

**Q.** And the “antiviral effect compared with other components of the extract” value ([1]; Vero cells)?
**A.** Its value is “best antiviral effect”.

**Q.** What about the viability at 10 µM [2] of the same molecule?
**A.** Its viability at 10 µM is 87%.

**Q.** What about the “reduction of gB protein compared to the virus-infected group” value [3] of the same molecule?
**A.** Its value is 99%.

**Q.** What about the “inhibition rate against ICP27 compared to the virus-infected group” value [4] of the same molecule?
**A.** The value was 93%.

**Q.** What about the “inhibition rate against VP16 compared to the virus-infected group” value [5] of the same molecule?
**A.** The value was 100%.

**Q.** And the “expression of amyloid beta (Aβ1-42) compared to the virus-infected group” value (amyloid beta (Aβ1-42))?
**A.** The value was “significantly reduced”.

**Q.** What about the “phosphorylation of tau protein (p-tau) compared to the virus-infected group” value (tau protein (p-tau)) of the same molecule?
**A.** The value was “significantly reduced”.
